Source: PubChem BioAssay (NCI)
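Dose response: 5 concentrations. Exposure: 48 h. Format: 96-well plates. Endpoint: linear interpolation; highest concentration if not reached. The concentration for 50% growth inhibition is given as GI50. Definition used: TGI = concentration required for complete inhibition of growth.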

How the values were obtained:
Assay in all cases: inhibition of tumour cell growth, NCI panel, 48 h
KM12 colon = test system: KM12 colon
HOP-62 NSCLC = test system: HOP-62 NSCLC
SNB-19 CNS = test system: SNB-19 CNS
CCRF-CEM leukemia = test system: CCRF-CEM leukemia
NCI-H226 lung = test system: NCI-H226 lung
HL-60(TB) leukemia = test system: HL-60(TB) leukemia
SK-MEL-5 melanoma = test system: SK-MEL-5 melanoma
EKVX NSCLC = test system: EKVX NSCLC
UO-31 renal = test system: UO-31 renal
A549 NSCLC = test system: A549 NSCLC
NCI-H522 lung = test system: NCI-H522 lung
MALME-3M melanoma = test system: MALME-3M melanoma
SK-MEL-2 melanoma = test system: SK-MEL-2 melanoma
SF-268 CNS = test system: SF-268 CNS
COLO 205 colon = test system: COLO 205 colon
NCI-H460 lung = test system: NCI-H460 lung
SR leukemia = test system: SR leukemia
OVCAR-8 ovarian = test system: OVCAR-8 ovarian
NCI-H23 lung = test system: NCI-H23 lung
MCF7 breast = test system: MCF7 breast
U251 CNS = test system: U251 CNS
DU-145 prostate = test system: DU-145 prostate
MDA-MB-231 breast = test system: MDA-MB-231 breast
PC-3 prostate = test system: PC-3 prostate
SF-539 CNS = test system: SF-539 CNS
OVCAR-3 ovarian = test system: OVCAR-3 ovarian
SK-MEL-28 melanoma = test system: SK-MEL-28 melanoma
SW-620 colon = test system: SW-620 colon
SNB-75 CNS = test system: SNB-75 CNS
MDA-MB-435 = test system: MDA-MB-435
RPMI-8226 leukemia = test system: RPMI-8226 leukemia
ACHN renal = test system: ACHN renal
MOLT-4 leukemia = test system: MOLT-4 leukemia
SF-295 CNS = test system: SF-295 CNS
OVCAR-4 ovarian = test system: OVCAR-4 ovarian
OVCAR-5 ovarian = test system: OVCAR-5 ovarian
SN12C renal = test system: SN12C renal
HS 578T breast = test system: HS 578T breast
HOP-92 NSCLC = test system: HOP-92 NSCLC
TK-10 renal = test system: TK-10 renal
NCI/ADR-RES ovarian = test system: NCI/ADR-RES ovarian
SK-OV-3 ovarian = test system: SK-OV-3 ovarian
HT29 colon = test system: HT29 colon
HCT-15 colon = test system: HCT-15 colon
UACC-257 melanoma = test system: UACC-257 melanoma
UACC-62 melanoma = test system: UACC-62 melanoma
A498 renal = test system: A498 renal
K-562 leukemia = test system: K-562 leukemia
T-47D breast = test system: T-47D breast
CAKI-1 renal = test system: CAKI-1 renal

For `COc1ccc(/C=C/C(=O)c2ccc(-n3cc(CN4CCN(c5cc6c(cc5F)c(=O)c(C(=O)O)cn6C5CC5)CC4)nn3)cc2)cc1OC`, the GI50 (KM12 colon) was 1.57 µM, the TGI (KM12 colon) was 4.46 µM and the GI50 (HOP-62 NSCLC) was 2.49 µM. It also gave a TGI (HOP-62 NSCLC) of over 100 µM, a GI50 (SNB-19 CNS) of 4.52 µM and a TGI (SNB-19 CNS) of 66.7 µM. The GI50 (CCRF-CEM leukemia) was 2.63 µM, the TGI (CCRF-CEM leukemia) was over 100 µM and the GI50 (NCI-H226 lung) was 2.39 µM. It also gave a TGI (NCI-H226 lung) of 6.63 µM, a GI50 (HL-60(TB) leukemia) of 3.18 µM and a TGI (HL-60(TB) leukemia) of over 100 µM. For the same compound, the GI50 (SK-MEL-5 melanoma) was 2.64 µM, the TGI (SK-MEL-5 melanoma) was 7.74 µM and the GI50 (EKVX NSCLC) was 4.24 µM. For the same compound, the TGI (EKVX NSCLC) was over 100 µM, the GI50 (UO-31 renal) was 1.73 µM and the TGI (UO-31 renal) was 9.01 µM. It also gave a GI50 (A549 NSCLC) of 2.98 µM, a TGI (A549 NSCLC) of over 100 µM and a GI50 (NCI-H522 lung) of 4.25 µM. For the same compound, the TGI (NCI-H522 lung) was over 100 µM, the GI50 (MALME-3M melanoma) was 2.59 µM and the TGI (MALME-3M melanoma) was 8.41 µM. For the same compound, the GI50 (SK-MEL-2 melanoma) was 21.1 µM, the TGI (SK-MEL-2 melanoma) was over 100 µM and the GI50 (SF-268 CNS) was 3.09 µM. The TGI (SF-268 CNS) was over 100 µM, the GI50 (COLO 205 colon) was 5.09 µM and the TGI (COLO 205 colon) was over 100 µM. The GI50 (NCI-H460 lung) was 2.4 µM, the TGI (NCI-H460 lung) was 6.66 µM and the GI50 (SR leukemia) was 0.434 µM. For the same compound, the TGI (SR leukemia) was over 100 µM, the GI50 (OVCAR-8 ovarian) was 4.03 µM and the TGI (OVCAR-8 ovarian) was over 100 µM. The GI50 (NCI-H23 lung) was 2.97 µM, the TGI (NCI-H23 lung) was 22.3 µM and the GI50 (MCF7 breast) was 0.396 µM. The TGI (MCF7 breast) was over 100 µM, the GI50 (U251 CNS) was 1.48 µM and the TGI (U251 CNS) was over 100 µM. It also gave a GI50 (DU-145 prostate) of 3.67 µM, a TGI (DU-145 prostate) of 34.9 µM and a GI50 (MDA-MB-231 breast) of 3.2 µM. For the same compound, the TGI (MDA-MB-231 breast) was over 100 µM, the GI50 (PC-3 prostate) was 2.54 µM and the TGI (PC-3 prostate) was 15.7 µM. The GI50 (SF-539 CNS) was 1.91 µM, the TGI (SF-539 CNS) was 4.39 µM and the GI50 (OVCAR-3 ovarian) was 1.84 µM. For the same compound, the TGI (OVCAR-3 ovarian) was 4.93 µM, the GI50 (SK-MEL-28 melanoma) was 2.77 µM and the TGI (SK-MEL-28 melanoma) was 10.4 µM. It also gave a GI50 (SW-620 colon) of 1.37 µM, a TGI (SW-620 colon) of 6.98 µM and a GI50 (SNB-75 CNS) of 1.49 µM. The TGI (SNB-75 CNS) was 4.29 µM, the GI50 (MDA-MB-435) was 1.49 µM and the TGI (MDA-MB-435) was 4.67 µM. The GI50 (RPMI-8226 leukemia) was 0.401 µM, the TGI (RPMI-8226 leukemia) was 4.46 µM and the GI50 (ACHN renal) was 3.5 µM. It also gave a TGI (ACHN renal) of 45.2 µM, a GI50 (MOLT-4 leukemia) of 3.32 µM and a TGI (MOLT-4 leukemia) of over 100 µM. The GI50 (SF-295 CNS) was 2.91 µM, the TGI (SF-295 CNS) was over 100 µM and the GI50 (OVCAR-4 ovarian) was 3.94 µM. It also gave a TGI (OVCAR-4 ovarian) of 15.5 µM, a GI50 (OVCAR-5 ovarian) of 3.7 µM and a TGI (OVCAR-5 ovarian) of 25.7 µM. The GI50 (SN12C renal) was 2.66 µM, the TGI (SN12C renal) was 10 µM and the GI50 (HS 578T breast) was 3.91 µM. It also gave a TGI (HS 578T breast) of over 100 µM, a GI50 (HOP-92 NSCLC) of 11.7 µM and a TGI (HOP-92 NSCLC) of 38.3 µM. The GI50 (TK-10 renal) was 5.61 µM, the TGI (TK-10 renal) was over 100 µM and the GI50 (NCI/ADR-RES ovarian) was over 100 µM. For the same compound, the TGI (NCI/ADR-RES ovarian) was over 100 µM, the GI50 (SK-OV-3 ovarian) was 7.09 µM and the TGI (SK-OV-3 ovarian) was over 100 µM. For the same compound, the GI50 (HT29 colon) was 1.24 µM, the TGI (HT29 colon) was over 100 µM and the GI50 (HCT-15 colon) was 2.25 µM. The TGI (HCT-15 colon) was over 100 µM, the GI50 (UACC-257 melanoma) was 6.34 µM and the TGI (UACC-257 melanoma) was over 100 µM. For the same compound, the GI50 (UACC-62 melanoma) was 2.83 µM, the TGI (UACC-62 melanoma) was 8.84 µM and the GI50 (A498 renal) was 4.18 µM. For the same compound, the TGI (A498 renal) was 14.4 µM, the GI50 (K-562 leukemia) was 0.977 µM and the TGI (K-562 leukemia) was over 100 µM. For the same compound, the GI50 (T-47D breast) was 3.16 µM, the TGI (T-47D breast) was over 100 µM and the GI50 (CAKI-1 renal) was 5.1 µM. It also gave a TGI (CAKI-1 renal) of 19 µM.
